The record followed here is US4177282A, “Hydantoin therapeutic agents” (priority 1978, dated 1979).

Where a name gives a salt, the structure may show the parent alone.

Series [1] concerns the target T1, partially purified aldose reductase enzyme obtained from calf lens (Bos taurus, UniProt P16116).
T1 construct: partially purified aldose reductase enzyme obtained from calf lens; from tissue; host or cells: calf lens
The series is described as follows: inhibition of isolated aldose reductase enzyme activity (procedure of S. Hayman et al., as modified by K. Sestanj et al.). It counts as biochemical. The settings on record: for inhibition at 100 µM / inhibition at 10 µM / inhibition at 1 µM / inhibition at 0.1 µM / Percent Inhibition (%) of aldose reductase enzyme activity: calf lens enzyme; for inhibition at 100 µM / inhibition at 10 µM / inhibition at 1 µM / inhibition at 0.1 µM: read-out: Percent Inhibition (%) of aldose reductase enzyme activity. How it is done: (§1) The activity of the compounds of the present invention, as agents for the control of chronic diabetic complications, is determined by their ability to successfully pass one or more of the following standard biological and/or pharmacological tests, viz., (1) measuring their ability to inhibit the enzyme activity of isolated aldose reductase; (2) measuring their ability to reduce or inhibit sorbitol accumulation in the sciatic nerve of acutely streptozotocinized (i.e., diabetic) rats; (3) measuring their ability to reverse alredy-elevated sorbitol levels in the sciatic nerve and lens of chronic streptozotocin-induced diabetic rats; (4) measuring their ability to prevent or inhibit galactitol formation in the lens of acutely galactosemic rats, and (5) measuring their ability to delay cataract formation and reduce the severity of lens opacities in chronic galactosemic rats.
In every case, the substrate employed was partially purified aldose reductase enzyme obtained from calf lens.

The test system of series [2] is sorbitol accumulation in the sciatic nerve of streptozotocinized (i.e., diabetic) rats. The series is described as follows: inhibition of sorbitol accumulation in the sciatic nerve of streptozotocinized (diabetic) rats. The conditions noted are these: measured at 27 hours, vs untreated. It counts as in vivo, rat. How it is done:
as §1
The following spiro-hydantoin compounds of Preparations B and C and Examples I-II, respectively, were tested for their ability to reduce or inhibit sorbitol accumulation in the sciatic nerve of streptozotocinized (i.e., diabetic) rats by the procedure essentially described in U.S. Pat. No. 3,821,383. In the present study, the amount of sorbitol accumulation in the sciatic nerves was measured 27 hours after induction of diabetes. The compounds were administered orally at the dose levels indicated 4, 8 and 24 hours following the administration of streptozotocin. The results obtained in this manner are presented below in terms of percent inhibition (%) afforded by the test compound as compared to the case where no compound was administered (i.e., the untreated animal where sorbitol levels normally rise from approximately 50-100 mM/g. tissue to as high as 400 mM/g. tissue in the 27-hour test period): […]

The test system of series [3] is sorbitol levels in the sciatic nerve and lens of diabetic subjects. The series is described as follows: lowering of sorbitol levels in the sciatic nerve and lens of diabetic subjects. The format is in vivo, rat. How it is done:
as §1

Series [4] concerns galactitol levels in the lens of galactosemic subjects. The series can be described thus: lowering of galactitol levels in the lens of galactosemic subjects. It counts as in vivo, rat. How it is done: as §1
Series [5] deals with sorbitol levels in diabetic rats. The series can be described thus: control (inhibition) of formation of sorbitol levels in diabetic rats, oral. The format is in vivo, rat. The conditions noted are these: 0.25 mg./kg. to 5.0 mg./kg. An excerpt:
As previously indicated, the dextrorotatory spiro-hydantoin compounds of this invention are all readily adapted to therapeutic use as aldose reductase inhibitors for the control of chronic diabetic complications, in view of their ability to reduce lens sorbitol levels in diabetic subjects to a statistically significant degree. […] The other compounds of this invention also cause similar results. Furthermore, the herein described compounds of this invention can be administered by either the oral or parenteral routes of administration, for the present purposes at hand, without causing any significant untoward pharmacological side reactions to occur in the subject to whom they are so administered. In general, these compounds are ordinarily administered in dosages ranging from about 0.05 mg. to about 5.0 mg. per kg. of body weight per day, although variations will necessarily occur depending upon the weight and condition of the subject being treated and the particular route of administration chosen.

A further series is described as follows: solubility in water. It counts as physicochemical. The settings on record: amorphous powder, freeze-dried.
Where [6] appears, read: 0.25 mg./kg. orally at 4, 8 and 24 hours after streptozotocin.
The mark [7] stands for this setting: 0.75 mg./kg. orally at 4, 8 and 24 hours after streptozotocin.
The mark [8] stands for this setting: 1.5 mg./kg. orally at 4, 8 and 24 hours after streptozotocin.
Where [9] appears, read: 2.5 mg./kg. orally at 4, 8 and 24 hours after streptozotocin.

Take `O=C1NC(=O)C2(CCOc3ccc(F)cc32)N1` (racemic) [dl-Cpd. of Prep. B, dl-6-fluoro-spiro-[chroman-4,4'-imidazolidine]-2',5'-dione]: the inhibition at 100 µM in series [1] (10^-4 M) worked out at 85%. Besides, the inhibition at 10 µM in series [1] (10^-5 M) was 58%. For the same compound, in series [1] (10^-6 M), the inhibition at 1 µM was found to be 52%. Moreover, the inhibition at 0.1 µM in series [1] (10^-7 M) was 3%. In addition, the “Percent Inhibition (%) of sorbitol accumulation in the sciatic nerve” value (shortened to “Percent Inhibition (%) … in the sciatic nerve”) in series [2] (setting [6]) worked out at 19%; in series [2] (setting [7]), 45%; in series [2] (setting [8]), 72%.

As for `O=C1NC(=O)C2(CCSc3ccc(F)cc32)N1` (racemic) [dl-Cpd. of Prep. C, dl-6'-fluoro-spiro-[imidazolidine-4,4'-thiochroman]-2,5-dione], the inhibition at 100 µM in series [1] (10^-4 M) stood at 81%. In addition, the inhibition at 10 µM in series [1] (10^-5 M) stood at 77%. For the same compound, the inhibition at 1 µM in series [1] (10^-6 M) amounted to 66%. In addition, in series [1] (10^-7 M), the inhibition at 0.1 µM was 38%. The figures for the “Percent Inhibition (%) … in the sciatic nerve” value in series [2] (setting [7]), in series [2] (setting [8]) and in series [2] (setting [9]) were 13%, 45% and 74%, respectively.

Consider `O=C1NC(=O)C2(CCOc3ccc(F)cc32)N1` (single isomer, unassigned) [1-Isomer of Ex. I, l-6-fluoro-spiro-[chroman-4,4'-imidazolidine]-2',5'-dione], for which the “Percent Inhibition (%) of aldose reductase enzyme activity” value in series [1] (10^-4 M) is 88%; in series [1] (10^-5 M), 63%; in series [1] (10^-6 M) it was 23%; in series [1] (10^-7 M) it was -4%. Besides, the “Percent Inhibition (%) … in the sciatic nerve” value in series [2] (setting [7]) is listed as 19%; in series [2] (setting [9]) it was 6%; in series [2] (5.0 mg./kg. orally at 4, 8 and 24 hours after streptozotocin), 22%.

As for `O=C1NC(=O)C2(CCSc3ccc(F)cc32)N1` (single isomer, unassigned) [1-Isomer of Ex. II, l-6'-fluoro-spiro-[imidazolidine-4,4'-thiochroman]-2,5-dione], the “Percent Inhibition (%) of aldose reductase enzyme activity” value is 87% in series [1] (10^-4 M), 65% in series [1] (10^-5 M), 11% in series [1] (10^-6 M) and 10% in series [1] (10^-7 M).

Turning to `O=C1NC(=O)C2(CCOc3ccc(F)cc32)N1` (single isomer, unassigned) [d-Isomer of Ex. I, d-6-fluoro-spiro-[chroman-4,4'-imidazolidine]-2',5'-dione], the “lowering sorbitol levels in the sciatic nerve and lens (in words)” value in series [3] was “equally effective in lowering sorbitol levels in the sciatic nerve and lens of diabetic subjects”. Also, the “lowering galactitol levels in the lens (in words)” value in series [4] was “to a very significantly high degree”. Moreover, the “aldose reductase inhibitory activity (in words)” value in series [1] is recorded as “extremely potent”. Also, the inhibition at 100 µM in series [1] (10^-4 M) came to 100%. In addition, the “Percent Inhibition (%) of aldose reductase enzyme activity” value was 98% in series [1] (10^-6 M) and 39% in series [1] (10^-7 M). The “control (i.e., inhibit) the formation of sorbitol levels (in words)” value in series [5] is given as “to a significantly high degree”. The results for the “Percent Inhibition (%) … in the sciatic nerve” value in series [2] (setting [6]) and in series [2] (setting [7]) were 47% and 78%, respectively.

For `O=C1NC(=O)C2(CCSc3ccc(F)cc32)N1` (single isomer, unassigned) [d-Isomer of Ex. II, d-6'-fluoro-spiro-[imidazolidine-4,4'-thiochroman]-2,5-dione], the “lowering sorbitol levels in the sciatic nerve and lens (in words)” value in series [3] was “equally effective in lowering sorbitol levels in the sciatic nerve and lens of diabetic subjects”. Further, the “lowering galactitol levels in the lens (in words)” value in series [4] was “to a very significantly high degree”. Moreover, in series [1], the “aldose reductase inhibitory activity (in words)” value is “extremely potent”. Also, in series [1] (10^-4 M), the inhibition at 100 µM was found to be 89%. Moreover, the inhibition at 10 µM in series [1] (10^-5 M) worked out at 80%. The entries for the “Percent Inhibition (%) of aldose reductase enzyme activity” value in series [1] (10^-6 M) and in series [1] (10^-7 M) were 76% and 74%, respectively. Moreover, the “Percent Inhibition (%) … in the sciatic nerve” value in series [2] (setting [7]) worked out at 55%.

For the compound `O=C1NC(=O)C2(CCOc3ccc(F)cc32)N1` (single isomer, unassigned) [sodium salt of d-6-fluoro-spiro-[chroman-4,4'-imidazolidine]-2',5'-dione], the “solubility in water (in words)” value in “solubility in water” is given as “freely soluble in water”.

For orientation: inhibition means the percentage by which the read-out fell short of the control.
